Measurements taken from ChEMBL document CHEMBL1201862, “PubChem BioAssay data set” (2004).
Calls of active or inactive are those of the source.

How the values were obtained:
Cytochrome P450 1A2 = biological target: T1, Cytochrome P450 1A2 (Homo sapiens, UniProt P05177);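 further: PubChem cytochrome P450 panel assay, CYP1A2 panel member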
T1 sequence (P05177 whole entry): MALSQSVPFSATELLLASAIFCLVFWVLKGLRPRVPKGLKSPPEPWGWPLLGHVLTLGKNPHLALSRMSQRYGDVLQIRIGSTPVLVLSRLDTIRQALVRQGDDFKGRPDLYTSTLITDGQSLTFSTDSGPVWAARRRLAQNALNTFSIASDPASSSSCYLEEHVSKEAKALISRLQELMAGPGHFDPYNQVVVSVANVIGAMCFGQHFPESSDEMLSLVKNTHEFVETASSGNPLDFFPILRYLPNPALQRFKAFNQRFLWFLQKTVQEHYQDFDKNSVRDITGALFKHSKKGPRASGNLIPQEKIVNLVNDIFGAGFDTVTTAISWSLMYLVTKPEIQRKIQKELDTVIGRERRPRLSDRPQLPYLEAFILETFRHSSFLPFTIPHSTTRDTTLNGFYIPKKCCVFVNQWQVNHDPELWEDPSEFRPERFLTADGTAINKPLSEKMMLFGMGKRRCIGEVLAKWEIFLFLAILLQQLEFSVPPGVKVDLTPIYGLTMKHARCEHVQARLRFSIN

Cytochrome P450 2C9 = Cytochrome P450 2C9 (Homo sapiens, UniProt P11712)
Sequence of Cytochrome P450 2C9 (P11712 whole entry): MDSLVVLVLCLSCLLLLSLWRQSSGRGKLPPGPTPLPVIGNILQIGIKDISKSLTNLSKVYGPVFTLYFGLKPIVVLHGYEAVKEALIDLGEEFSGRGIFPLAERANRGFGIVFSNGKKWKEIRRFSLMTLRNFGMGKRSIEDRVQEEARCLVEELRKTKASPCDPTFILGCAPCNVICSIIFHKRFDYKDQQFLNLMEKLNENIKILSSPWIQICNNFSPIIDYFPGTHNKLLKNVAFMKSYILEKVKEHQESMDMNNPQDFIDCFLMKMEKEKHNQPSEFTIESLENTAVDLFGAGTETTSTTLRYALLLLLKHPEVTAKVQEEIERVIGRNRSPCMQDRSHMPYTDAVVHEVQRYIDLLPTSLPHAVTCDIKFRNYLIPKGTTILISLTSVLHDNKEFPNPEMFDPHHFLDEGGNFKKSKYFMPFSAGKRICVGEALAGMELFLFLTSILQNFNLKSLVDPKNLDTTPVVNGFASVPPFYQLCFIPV

[1] = luciferase reporter signal suppression in cells – H4 neuroglioma cells, luminescence, dose response (AID 1990); type: functional, cell-based
[2] = Luminescence Cell-Based Dose Response HTS to Identify Inhibitors of 5'UTR Stem-Loop Driven Prion Protein mRNA Translation in H4 Neuroglioblastoma Cells. [Related pubchem assays: 1827 (Project Summary), 1813 (Primary HTS)]; type: functional
[3] = alpha-synuclein stem-loop luciferase translation blockers – H4 neuroglioma cells, luminescence, confirmation (AID 1988); type: functional, cell-based
[4] = biological target: T2, Corticotropin-releasing factor receptor 2/Corticotropin-releasing factor-binding protein (Homo sapiens, UniProt P24387+Q13324); assay: Dose Response confirmation of uHTS hits for small molecule antagonists of the CRF-binding protein and CRF-R2 receptor complex.; type: functional; details: read-out: IC50_Mean
T2 sequence (Q13324 whole entry): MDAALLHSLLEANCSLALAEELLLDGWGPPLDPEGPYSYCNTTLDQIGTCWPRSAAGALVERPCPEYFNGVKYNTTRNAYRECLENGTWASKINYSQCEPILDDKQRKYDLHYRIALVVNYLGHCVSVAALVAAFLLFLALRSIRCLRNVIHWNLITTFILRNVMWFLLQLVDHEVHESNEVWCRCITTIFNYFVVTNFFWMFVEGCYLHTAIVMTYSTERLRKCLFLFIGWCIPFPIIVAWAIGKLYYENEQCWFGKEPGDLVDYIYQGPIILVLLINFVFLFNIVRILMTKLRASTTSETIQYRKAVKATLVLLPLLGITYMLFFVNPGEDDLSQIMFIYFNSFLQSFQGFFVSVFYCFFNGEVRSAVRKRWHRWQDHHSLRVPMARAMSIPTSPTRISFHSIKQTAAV
T2 sequence (P24387 whole entry): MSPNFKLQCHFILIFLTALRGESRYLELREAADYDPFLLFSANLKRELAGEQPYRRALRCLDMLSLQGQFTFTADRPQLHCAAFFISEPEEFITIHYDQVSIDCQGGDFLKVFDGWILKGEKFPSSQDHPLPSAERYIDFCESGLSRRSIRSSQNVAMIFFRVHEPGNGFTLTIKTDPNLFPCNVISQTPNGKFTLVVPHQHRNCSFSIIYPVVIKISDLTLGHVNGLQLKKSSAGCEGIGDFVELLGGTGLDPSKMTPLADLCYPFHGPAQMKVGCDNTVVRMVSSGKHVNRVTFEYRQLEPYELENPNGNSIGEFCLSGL

[5] = biological target: T2, Corticotropin-releasing factor receptor 2/Corticotropin-releasing factor-binding protein; assay: activators of CRF receptor 2 with binding protein – uHTS hits, confirmation (AID 602473); type: functional; details: read-out: EC50_Mean
Cytochrome P450 2C19 = Cytochrome P450 2C19 (Homo sapiens, UniProt P33261); assay: Cytochrome panel assay with activity outcomes. Panel member name: p450-cyp2c19 Compounds with AC50 equal or less than 10 uM are considered active; type: functional; details: read-out: AC50
Sequence of Cytochrome P450 2C19 (P33261 whole entry): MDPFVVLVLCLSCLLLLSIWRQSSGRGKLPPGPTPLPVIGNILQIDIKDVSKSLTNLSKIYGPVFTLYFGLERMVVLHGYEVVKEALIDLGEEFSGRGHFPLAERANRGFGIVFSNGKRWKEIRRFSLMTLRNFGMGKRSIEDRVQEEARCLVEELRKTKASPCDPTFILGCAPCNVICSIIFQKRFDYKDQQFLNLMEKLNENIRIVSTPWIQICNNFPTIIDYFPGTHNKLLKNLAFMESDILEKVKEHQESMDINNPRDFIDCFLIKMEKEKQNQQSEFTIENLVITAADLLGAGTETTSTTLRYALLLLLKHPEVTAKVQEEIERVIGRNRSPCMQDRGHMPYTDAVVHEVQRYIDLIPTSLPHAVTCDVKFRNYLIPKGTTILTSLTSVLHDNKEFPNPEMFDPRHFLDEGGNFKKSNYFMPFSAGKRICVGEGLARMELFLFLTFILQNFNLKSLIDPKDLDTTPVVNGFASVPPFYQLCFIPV

[6] = biological target: T3, Ubiquitin-conjugating enzyme E2 N (Homo sapiens, UniProt P61088); type: functional;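 further: Dose-response confirmation in a TR-FRET assay detecting UBC13-driven polyubiquitin chain formation, inhibition measured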
T3 sequence (P61088 whole entry): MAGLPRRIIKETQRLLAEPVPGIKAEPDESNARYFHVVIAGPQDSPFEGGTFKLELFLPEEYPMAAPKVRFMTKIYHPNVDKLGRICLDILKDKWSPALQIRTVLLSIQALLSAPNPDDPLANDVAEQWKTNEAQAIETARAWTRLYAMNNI

[7] = Trypanosoma cruzi growth suppression in host cells – NIH3T3 host cells, beta-gal luminescence, confirmation (AID 2044); type: functional, cell-based;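 further: intracellular parasites grown in NIH/3T3 mouse fibroblasts as host cells; luminescent beta-galactosidase reporter signal from transgenic T. cruzi replicating inside host cells; inhibitors lower the luminescence signal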
[8] = NIH3T3 cell viability loss – ATP luminescence, mouse fibroblasts, counter-screen, dose response (AID 2010); type: functional, cell-based;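 further: cells exposed to compound for about 90 hours before reading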
Cytochrome P450 3A4 = Cytochrome P450 3A4 (Homo sapiens, UniProt P08684);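 further: CYP3A4 tested as one member of a cytochrome P450 panel screen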
Sequence of Cytochrome P450 3A4 (P08684 whole entry): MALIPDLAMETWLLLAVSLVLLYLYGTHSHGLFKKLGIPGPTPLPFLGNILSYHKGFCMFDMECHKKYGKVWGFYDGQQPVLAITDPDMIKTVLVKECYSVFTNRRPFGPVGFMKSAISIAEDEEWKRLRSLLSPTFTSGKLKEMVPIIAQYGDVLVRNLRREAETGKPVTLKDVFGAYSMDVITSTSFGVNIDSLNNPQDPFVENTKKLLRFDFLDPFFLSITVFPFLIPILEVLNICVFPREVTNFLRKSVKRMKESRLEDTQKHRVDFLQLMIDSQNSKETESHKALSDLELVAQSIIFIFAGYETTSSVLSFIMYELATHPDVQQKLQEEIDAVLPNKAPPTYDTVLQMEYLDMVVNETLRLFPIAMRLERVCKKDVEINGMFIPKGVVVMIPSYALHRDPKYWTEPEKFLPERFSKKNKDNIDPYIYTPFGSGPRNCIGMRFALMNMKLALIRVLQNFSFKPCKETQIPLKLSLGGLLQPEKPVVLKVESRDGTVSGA

Cytochrome P450 2D6 = Cytochrome P450 2D6 (Homo sapiens, UniProt P10635);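 further: CYP2D6 member of a cytochrome P450 panel assay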
Sequence of Cytochrome P450 2D6 (P10635 whole entry): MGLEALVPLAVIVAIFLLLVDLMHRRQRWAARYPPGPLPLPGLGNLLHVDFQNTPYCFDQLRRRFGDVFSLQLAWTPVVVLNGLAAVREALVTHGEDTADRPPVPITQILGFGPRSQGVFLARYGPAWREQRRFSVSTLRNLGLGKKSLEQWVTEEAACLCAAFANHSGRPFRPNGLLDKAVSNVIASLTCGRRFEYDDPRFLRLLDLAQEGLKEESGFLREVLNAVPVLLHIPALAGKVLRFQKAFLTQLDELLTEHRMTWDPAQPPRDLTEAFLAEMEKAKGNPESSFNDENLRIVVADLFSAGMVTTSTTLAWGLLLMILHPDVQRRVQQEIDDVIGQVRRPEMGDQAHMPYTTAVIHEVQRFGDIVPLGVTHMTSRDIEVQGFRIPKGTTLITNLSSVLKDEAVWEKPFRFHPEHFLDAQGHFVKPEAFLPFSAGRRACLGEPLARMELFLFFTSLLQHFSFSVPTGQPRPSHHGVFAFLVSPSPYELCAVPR

## COC(=O)[C@@]1(Cc2ccc(OC)cc2)[C@@H]2[C@@H](CC(=O)[C@H]2CC(=O)C(=O)N(C)C)CN1C(=O)c1ccccc1
Cytochrome P450 1A2
  AC50: 2 µM (inconclusive)
Cytochrome P450 2C9
  AC50: 39.8 µM (inconclusive)

## Sc1nnc(CSCc2ccccc2Cl)n1-c1ccccc1
Cytochrome P450 1A2
  AC50: 22.4 µM (inconclusive)
Cytochrome P450 2C9
  AC50: 5.01 µM (inconclusive)

## CC(C)CCn1nc(C(=O)Nc2nc3c(s2)CCCC3)c2ccccc2c1=O
[1]
  EC50: 16.9 µM (active)
[2]
  EC50: 12.9 µM (active)
[3]
  EC50: 12.8 µM (active)

## O=C(O)c1cc(-c2ccccc2)nc(-c2ccccc2)c1
[4]
  IC50: > 47.1 µM (inactive)
[5]
  EC50: > 53 µM (inactive)

## Cc1ccc(S(=O)(=O)N2CCN(C(=O)CN3CCN(C)CC3)C2)cc1
Cytochrome P450 2C19
  AC50: 28.2 µM (inconclusive)
Cytochrome P450 1A2
  AC50: 15.8 µM (inconclusive)

## Cc1cccc(N2CCc3c2nc2ccccc2c3N)c1
[6]
  IC50: > 20 µM (inactive)

## Cc1cc(C)c(S(=O)(=O)Nc2cccc(C(F)(F)F)c2)c(C)c1
Cytochrome P450 1A2
  AC50: 39.8 µM (inconclusive)

## CS(=O)(=O)N1CCN(c2c(Cl)cccc2[N+](=O)[O-])CC1
Cytochrome P450 1A2
  AC50: 28.2 µM (inconclusive)
Cytochrome P450 2C9
  AC50: 0.251 µM (inconclusive)

## CC1(C)Cc2nc3sc4c(SCC(=O)NCc5ccccc5)ncnc4c3cc2CO1
[2]
  EC50: > 120 µM (not active)
[3]
  EC50: 3.72 µM (active)

## NCC12CC3CC(C1)CC(c1ccc(Cl)cc1)(C3)C2
[7]
  EC50: 2.19 µM (active)
[8]
  EC50: > 60 µM (inconclusive)
[6]
  IC50: > 20 µM (inactive)

## Cc1ccc(-n2nc3c(=O)n(CC(=O)NCc4ccc(C)o4)nc(C)c3c2C)cc1
[1]
  EC50: 17.8 µM (active)
[2]
  EC50: 109 µM (active)
[3]
  EC50: > 120 µM (not active)

## Cc1ccc(OCc2cc(C(=O)N3CCN(CC(=O)NC(C)C)CC3)no2)cn1
[4]
  IC50: > 47.1 µM (inactive)
[5]
  EC50: > 53 µM (inactive)

## CN(C)CCN(C)CCc1ccc(Cl)c(Cl)c1
Cytochrome P450 1A2
  AC50: 39.8 µM (inconclusive)

## O=C(O)CCC/C=C\C[C@@H]1CO[C@H](C(F)(F)F)O[C@@H]1c1ccccc1O
Cytochrome P450 2C19
  AC50: 10 µM (inconclusive)
Cytochrome P450 1A2
  AC50: 39.8 µM (inconclusive)
Cytochrome P450 3A4
  AC50: 15.8 µM (inconclusive)
Cytochrome P450 2C9
  AC50: 20 µM (inconclusive)

## N#Cc1cccc(NCC(=O)Nc2ccc3c(c2)OCCO3)c1
[4]
  IC50: > 47.1 µM (inactive)
[5]
  EC50: > 53 µM (inactive)

## CCNc1ncc2nc(-c3ccc(OC)cc3)c(=O)n(CCOC)c2n1
Cytochrome P450 1A2
  AC50: 1.26 µM (inconclusive)
Cytochrome P450 3A4
  AC50: 15.8 µM (inconclusive)

## CCOC(=O)c1c(NC(=O)Cc2cccs2)sc(C(=O)N2CCCCC2)c1C
[1]
  EC50: 14.6 µM (active)
[2]
  EC50: 22.2 µM (active)
[3]
  EC50: > 120 µM (not active)

## CCCC(=O)Nc1cc(C(=O)N2CCC3(CC2)OCCO3)ccc1S(=O)(=O)c1ccc(C)cc1
[1]
  EC50: > 120 µM (not active)
[2]
  EC50: > 120 µM (not active)
[3]
  EC50: > 120 µM (not active)

## Cc1csc(NC(=O)Cc2ccc(Br)cc2)n1
[4]
  IC50: > 47.1 µM (inactive)
[5]
  EC50: > 53 µM (inactive)

## NC(=O)COC(=O)c1ccc(-c2ccc(O)cc2)cc1
[4]
  IC50: > 47.1 µM (inactive)
[5]
  EC50: > 53 µM (inactive)

## COc1ccccc1OC[C@H](O)COC(N)=O
Cytochrome P450 1A2
  AC50: 10 µM (inconclusive)

## Cc1ccc(CNc2nc(N)c([N+](=O)[O-])c(Nc3ccc(F)cc3)n2)cc1
Cytochrome P450 1A2
  AC50: 1.12 µM (inconclusive)
Cytochrome P450 3A4
  AC50: 2 µM (inconclusive)
Cytochrome P450 2C9
  AC50: 3.55 µM (inconclusive)

## O=C(c1ccncc1)N1CCC[C@@]2(CCN(c3ccccn3)C2)C1
Cytochrome P450 1A2
  AC50: 20 µM (inconclusive)
Cytochrome P450 2C9
  AC50: 20 µM (inconclusive)

## O=C(CN1CCCCC1)Nc1cccc([N+](=O)[O-])c1
Cytochrome P450 2C19
  AC50: 14.1 µM (inconclusive)
Cytochrome P450 2D6
  AC50: 15.8 µM (inconclusive)
Cytochrome P450 1A2
  AC50: 39.8 µM (inconclusive)

## O=C(CSc1nnc(-c2cccc(S(=O)(=O)N3CCOCC3)c2)n1C1CCCCCC1)NCc1ccccc1
Cytochrome P450 2C19
  AC50: 31.6 µM (inconclusive)
Cytochrome P450 2D6
  AC50: 7.94 µM (inconclusive)
Cytochrome P450 1A2
  AC50: 39.8 µM (inconclusive)
Cytochrome P450 2C9
  AC50: 14.1 µM (inconclusive)

## CCOC(=O)c1cc(C)sc1NC(=O)CCC(=O)O
[4]
  IC50: > 47.1 µM (inactive)
[5]
  EC50: > 53 µM (inactive)

## C#CCOCCOCCOCCNc1nc(N2CCN(C(=O)[C@H]([C@@H](C)CC)n3cc(CCCCN)nn3)CC2)nc(N2CCN(C(=O)[C@H]([C@@H](C)CC)n3cc(CCCN=C(N)N)nn3)CC2)n1
[6]
  IC50: > 20 µM (inactive)

## C#CCOCCOCCOCCNc1nc(N2CCN(C(=O)C([C@@H](C)O)n3cc([C@@H](N)CCCCN)nn3)CC2)nc(N2CCN(C(=O)[C@H](CCCCN)n3cc([C@@H](N)CC(N)=O)nn3)CC2)n1 (stereo partly drawn)
[6]
  IC50: > 20 µM (inactive)

## COc1ccc(C2C3=C(O)CC(C)(C)CC3=Nc3c2c(=O)n(C)c(=O)n3C)cc1OC (stereo not drawn)
[4]
  IC50: > 47.1 µM (inactive)
[5]
  EC50: > 53 µM (inactive)

## CCC[C@@H](CN1CCC[C@H]1CN1C(N)=NC[C@H]1C(C)C)N1C[C@@H](Cc2ccccc2)N(CCCC2CCCC2)C1=N
[6]
  IC50: > 20 µM (inactive)

## COc1ccc(C2=Nc3ccccc3C2(O)CCN2C(=O)c3ccccc3C2=O)cc1 (stereo not drawn)
[4]
  IC50: > 47.1 µM (inactive)
[5]
  EC50: > 53 µM (inactive)

## O=C(NCCc1cccnc1)C1CCC(=O)N(Cc2ccc(Cl)cc2)C1 (stereo not drawn)
[4]
  IC50: > 47.1 µM (inactive)
[5]
  EC50: > 53 µM (inactive)

## Cc1noc(C)c1NC(=O)Nc1ccc2c(c1)C(=O)N([C@H](C)CO)C[C@H](C)[C@@H](CN(C)S(=O)(=O)c1ccc(F)cc1)O2
[4]
  IC50: > 47.1 µM (inactive)
[5]
  EC50: > 53 µM (inactive)

## CCOc1ccccc1C(=O)OCC(=O)NCC1CCCO1 (stereo not drawn)
[4]
  IC50: > 47.1 µM (inactive)
[5]
  EC50: > 53 µM (inactive)

## O=C(O)[C@H]1C[C@@H](CP(=O)(O)O)CCN1
Cytochrome P450 1A2
  AC50: 25.1 µM (inconclusive)

## CO/C(O)=C1\C(C)=Nc2nnnn2C1c1cc(OC)ccc1OC (stereo not drawn)
[1]
  EC50: > 120 µM (not active)
[2]
  EC50: 18.3 µM (active)
[3]
  EC50: > 120 µM (not active)

## N#Cc1nc(Nc2cccc(Cl)c2)c2ncn(C3CCCC3)c2n1
[4]
  IC50: > 47.1 µM (inactive)
[5]
  EC50: > 53 µM (inactive)
